Laboratory results reported in US20110028479A1, “SUBSTITUTED PYRROLOTRIAZINES AND THEIR USE” (BAYER SCHERING PHARMA AKTIENGESELLSCHAFT, priority 2007, published 2011).
pIC50: −log10 of the molar value.

Target: T1, Prostacyclin Receptors (IP Receptors) of Human Thrombocyte Membranes (Homo sapiens, UniProt P43119)
T1 construct: Thrombocyte membranes are obtained by centrifuging 50 ml of human blood; tissue Maco Pharma, Langen (buffy coats); host or cells: human thrombocyte (platelet) membranes prepared from human blood
T1 sequence (P43119 whole entry): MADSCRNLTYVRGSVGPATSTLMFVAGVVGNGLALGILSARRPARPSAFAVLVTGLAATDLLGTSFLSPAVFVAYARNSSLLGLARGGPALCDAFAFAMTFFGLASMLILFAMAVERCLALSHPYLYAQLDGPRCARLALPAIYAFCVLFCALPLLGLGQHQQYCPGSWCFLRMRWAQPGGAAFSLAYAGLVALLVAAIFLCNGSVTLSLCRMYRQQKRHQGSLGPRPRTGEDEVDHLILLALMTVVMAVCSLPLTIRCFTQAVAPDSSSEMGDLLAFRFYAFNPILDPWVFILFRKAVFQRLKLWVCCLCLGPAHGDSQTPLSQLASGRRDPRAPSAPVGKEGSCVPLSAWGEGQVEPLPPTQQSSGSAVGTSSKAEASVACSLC
Experiment: Binding to prostacyclin receptors (IP receptors) of human thrombocyte membranes, 3H-Iloprost displacement
Details: 3 nM 3H-Iloprost, 60 min, room temperature
Procedure: B-1. Studies of Binding to Prostacyclin Receptors (IP Receptors) of Human Thrombocyte Membranes
Thrombocyte membranes are obtained by centrifuging 50 ml of human blood (Buffy coats with CDP Stabilizer, from Maco Pharma, Langen) for 20 min at 160×g. Remove the supernatant (platelet-rich plasma, PRP) and then centrifuge again at 2000×g for 10 min at room temperature. Resuspend the sediment in 50 mM tris(hydroxymethyl)aminomethane, which has been adjusted to a pH of 7.4 with 1 N hydrochloric acid, and store at −20° C. overnight. On the next day, centrifuge the suspension at 80 000×g and 4° C. for 30 min. Discard the supernatant. […]
For the binding test, incubate 3 nM ^3H-Iloprost (592 GBq/mmol, from AmershamBioscience) for 60 min with 300-1000 μg/ml of human thrombocyte membranes per charge (max. 0.2 ml) in the presence of the test substances at room temperature. […] After adding Ultima Gold Scintillator, quantify the radioactivity bound to the membranes using a scintillation counter. The nonspecific binding is defined as radioactivity in the presence of 1 μM Iloprost (from Cayman Chemical, Ann Arbor) and is as a rule <25% of the bound total radioactivity. The binding data (IC50 values) are determined using the program GraphPad Prism Version 3.02.

Row | pIC50 | SMILES
1 | 6.65 | COc1ccc(-c2c(-c3ccccc3)cn3ncnc(O[C@H](C)CCCCC(=O)O)c23)cc1 [Example 4, (6R)-6-{[5-(4-methoxyphenyl)-6-phenylpyrrolo[2,1-f][1,2,4]triazin-4-yl]oxy}heptanoic acid]
2 | 6.20 | COc1ccc(-c2c(-c3ccccc3)cn3ncnc(NCCCCCC(=O)O)c23)cc1 [Example 3]
